Article PMC12992715, “Dual interference with host neuropeptide signaling allows parasitoid wasp to hijack host sugar metabolism” (The EMBO Journal, 2025)
No end group written: not given here.

Columns and labels:
P. xylostella larvae = assay: Feeding time and feeding interval time; assay type: in vivo, Plutella xylostella; conditions: sPxsNPF-1-injected, middle 4th instar; words
Description: Appendix Figure S4. PxsNPF is mainly expressed in the CNS and midgut-trachea of the host as an appetite-suppressing hormone
(A) Relative mRNA levels of PxsNPF in different tissues of non-parasitized and C. vestalis-parasitized host larvae at late 3rd instar (n = 3). (B) Left: schematic diagram of the general composition and cell types of the midgut. EC, enterocyte; ISC, intestinal stem cell; EB, enteroblast; EE, enteroendocrine cell; BM, basement membrane; VM, visceral muscle. Right: PxsNPF (red) is expressed in the tracheae of the midgut (white arrowheads). Nuclei were labelled by DAPI (blue). NP: non-parasitized hosts, P: parasitized hosts. Scale bars, 200 μm. (C) Immunostaining of PxsNPF prepropeptide (red) in the whole midgut of non-parasitized and parasitized P. xylostella larvae at late 3rd-instar. White dashed boxes indicate areas magnified in Fig.
5E. Nuclei were labelled by DAPI (blue). Scale bar: 500 μm. (D) Feeding time (left, n = 40 for grey, n = 23 for blue, n = 54 for red, n = 29 for purple) and interval time (right, n = 35 for grey, n = 13 for blue, n = 33 for red, n = 25 for purple) of non-parasitized, C. vestalis-parasitized, and sPxsNPF-1-injected and sCvsNPF-injected P. xylostella larvae at middle 4th-instar during feeding behaviour. Data are represented as […]
Two-tailed unpaired Student’s t-test, except for (D) (One-way ANOVA and Tukey’s multiple comparison tests). […]

PxsNPFR [1] = assay: Intracellular Ca2+ mobilisation (Fura-2/AM) in PxsNPFR-expressing HEK293 cells; assay type: cell-based, Plutella xylostella; conditions: 2.5 μM Fura-2/AM, excitation 340/380 nm, 37 °C, result in words
Experimental: To establish a stable HEK293/PxsNPFR cell line, the pcDNA 3.1^(+)/PxsNPFR plasmid was transfected into the HEK293 cells using Lipofectamine 3000 (Invitrogen). Two days later, 800 μg/ml G418 (Sangon Biotech) was added to the culture medium to select cells that stably expressed the receptor. After three weeks, resistant clones were trypsinised in cloning cylinders and transferred to 12-well plastic plates for expansion.
To measure the intracellular calcium flux, the transfected cells HEK293/PxsNPFR were harvested with PBS solution containing 0.02% EDTA, rinsed twice with PBS, and resuspended in Hanks’ balanced salt solution containing 0.025% BSA. Cells were then loaded with 2.5 μM Fura-2/AM (Dojindo) for 30 min at 37 °C and washed twice in Hanks’ balanced saline solution. These cells were stimulated with the indicated concentrations of synthetic sNPF, and Hanks’ solution was used as a negative control. The calcium flux was measured using excitation at 340 nm and 380 nm on a SpectraMax iD5 Multi-Mode Microplate Reader (Molecular Devices) at 37 °C.

PxHK mRNA in the midgut = assay: Ex vivo midgut incubation with sNPF and signalling inhibitors, PxHK mRNA; assay type: cell-based, Plutella xylostella; conditions: Fig 6F
Experimental: The in vitro incubations of fat body or midgut were performed as previously described with minor modifications (Cheng et al, [2022]). The fat bodies and midguts from non-parasitised middle 4th instar P. xylostella larvae were collected in 0.5 mL of PBS. The collected tissues were then preincubated in culture dishes containing TNM-FH medium (HyClone) for 30 min. sNPF peptides or inhibitors were administered to isolated fat body and midgut in vitro using a modified method from a previous study (Oh et al, [2019]). 1 mM stock solution of pertussis toxin (PTX, Tocris Bioscience) or U73122 (MedChemExpress) was dissolved in DMSO (Sigma-Aldrich) and kept at −80 °C. 0.1 ng/µl PTX or 10 µM U73122 were then mixed with 20 µM sNPF-contained TNM-FH medium. Preincubated tissues were incubated in these mixtures at 25 °C for 1 h, followed by total RNA isolation and qPCR.

[2] = test system: PxGP, PxHK and PxTPS mRNA; assay: qPCR of PxGP, PxHK, PxTPS in larvae injected with synthetic sNPF, venom, CvBV or teratocytes; assay type: in vivo, Plutella xylostella; conditions: 0.5 ng synthetic peptide, larvae whole body, 4L; n = 7-8; words
Description: To analyse gene expression in different tissues, P. xylostella larvae were dissected under the microscope, followed by the collection of the silk gland, fat body, midgut, haemocytes and central nervous system (CNS, brain and ventral nerve cord). Haemocytes were collected on clean Parafilm membranes with capillaries by bleeding the larvae from a cut proleg. To explore gene expression at different instars of parasitised or non-parasitised larvae, non-parasitised larva was isolated individually using RNA-easy Isolation Reagent (Vazyme). Parasitoid larvae were removed before parasitised hosts were isolated. As for the measurement of other experiments, per larva with different treatments was isolated individually using RNA-easy Isolation Reagent according to the manufacturer’s instructions.
The quality and concentrations of total RNAs were estimated by electrophoresis and NanoDrop 2000 spectrophotometer (Thermo Fisher Scientific). First-strand cDNAs were synthesised using the ReverTra Ace qPCR RT kit (Toyobo) according to the manufacturer’s instructions. Both β-actin (GenBank Acc. No.: AB282645) and β-tubulin (GenBank Acc. No.: EU127912) of P. xylostella were used as internal controls. Primer sequences used for qPCR analysis are shown in Appendix Table S4. qPCR was performed by using THUNDERBIRD® SYBR qPCR Mix (Toyobo) on the CFX Connect real-time system (Bio-Rad). All qPCR assays were performed using four internal replicates and at least three biological replicates under the following conditions: 95 °C for 60 s and 40 cycles of 95 °C for 15 s and 60 °C for 30 s. Relative gene expression levels were calculated using the 2^−ΔΔCt method.
Microinjections were performed under a Stemi 2000C microscope (Zeiss) using glass capillary injection needles and an Eppendorf Femtojet (Eppendorf) with a microcontroller (Narishige). To confirm the function of bovine insulin on hosts, 1 μg bovine insulin (Sigma-Aldrich, I0305000) was injected into the middle 3rd instar P. xylostella larvae. To identify the effect of each parasitic factor on hosts, 0.05 FE CvBV or 0.05 VRE venom was injected into the abdomen of the middle 3rd instar P. xylostella larva (Wang et al, [2018]; Yu et al, [2007]). 1 TE teratocytes’ content was microinjected into the early 4th instar P. xylostella larvae. To confirm the function of each synthetic sNPF peptide, 0.005 ng, 0.05 ng, or 0.5 ng of each peptide was injected into the middle 3rd instar P. xylostella larvae in a volume of 0.1 μl/per larva once per day for 3 consecutive days.

PxsNPFR [3] = assay: cAMP-Glo assay: inhibition of forskolin-induced cAMP accumulation in PxsNPFR-expressing HEK293 cells; assay type: cell-based, Plutella xylostella
Experimental: Cells were treated with 10 μM forskolin and various concentrations of the indicated peptide for 15 min at 37 °C (n = 3). […] Data are represented as mean ± SEM. *P<0.05, **P< 0.01, ***P< 0.005, not shown P > 0.05. […] (A) Two-tailed unpaired Student’s t test; (B–H) one-way ANOVA and Tukey’s multiple comparison tests.
Measurement of cyclic AMP in the HEK293/PxsNPFR cell line was accomplished with the cAMP-Glo™ Assay (Promega) according to the manufacturer’s instructions. Cells were seeded into the 96-well tissue culture plate (Thermo) overnight to grow at a recommended cell density (2500-10,000 cells/well). For the assay, cells were washed three times with PBS and then stimulated with 10 μM forskolin (Beyotime, added with 500 μM IBMX, Sigma-Aldrich) alone or 10 μM forskolin (added with 500 μM IBMX) with the indicated concentrations of synthetic sNPF for 15 min at room temperature. To generate a cAMP standard curve, cAMP standards supplied with the kit were prepared in a separate 96-well. Chemiluminescent signals were measured for 1 s/well on a SpectraMax iD5 Multi-Mode Microplate Reader (Molecular Devices).

“SVRSPSRRLRF-NH2 [sPxsNPF-1, synthetic short neuropeptide F-1 of Plutella xylostella]” was tested, and the feeding interval time (P. xylostella larvae) was “longer”, the feeding time (P. xylostella larvae) was “unaffected” and the “intracellular Ca2+ mobilisation” value (PxsNPFR [1]) was “elicited a rapid and transient increase in intracellular Ca^2+ mobilisation”. It also gave a PxHK relative expression (PxHK mRNA in the midgut; sPxsNPF-1+PTX, Average of 5 replicates, SD 0.30, control DMSO average 1.00) of 1.96, a PxHK relative expression (PxHK mRNA in the midgut; sPxsNPF-1+PTX, replicate 1) of 2.33 and a PxHK relative expression (PxHK mRNA in the midgut; sPxsNPF-1+PTX, replicate 2) of 1.83. For the same substance, the PxHK relative expression (PxHK mRNA in the midgut; sPxsNPF-1+PTX, replicate 3) was 1.61, the PxHK relative expression (PxHK mRNA in the midgut; sPxsNPF-1+PTX, replicate 4) was 1.83 and the PxHK relative expression (PxHK mRNA in the midgut; sPxsNPF-1+PTX, replicate 5) was 2.18. The PxHK relative expression (PxHK mRNA in the midgut; sPxsNPF-1+U73122, Average of 5 replicates, SD 0.13, control DMSO average 1.00) was 0.98, the PxHK relative expression (PxHK mRNA in the midgut; sPxsNPF-1+U73122, replicate 1) was 1.03 and the PxHK relative expression (PxHK mRNA in the midgut; sPxsNPF-1+U73122, replicate 2) was 0.92. For the same substance, the PxHK relative expression (PxHK mRNA in the midgut; sPxsNPF-1+U73122, replicate 3) was 1.06, the PxHK relative expression (PxHK mRNA in the midgut; sPxsNPF-1+U73122, replicate 4) was 0.79 and the PxHK relative expression (PxHK mRNA in the midgut; sPxsNPF-1+U73122, replicate 5) was 1.11. It also gave a PxHK relative expression (PxHK mRNA in the midgut; sPxsNPF-1 without inhibitor, Average of 5 replicates, SD 0.18, control DMSO average 1.00) of 1.73, a PxHK relative expression (PxHK mRNA in the midgut; sPxsNPF-1 without inhibitor, replicate 1) of 1.68 and a PxHK relative expression (PxHK mRNA in the midgut; sPxsNPF-1 without inhibitor, replicate 2) of 1.93. The PxHK relative expression (PxHK mRNA in the midgut; sPxsNPF-1 without inhibitor, replicate 3) was 1.52, the PxHK relative expression (PxHK mRNA in the midgut; sPxsNPF-1 without inhibitor, replicate 4) was 1.60 and the PxHK relative expression (PxHK mRNA in the midgut; sPxsNPF-1 without inhibitor, replicate 5) was 1.89. The “PxGP mRNA expression” value [2] was “remained unaffected”, the “PxHK mRNA expression” value [2] was “upregulated” and the “PxTPS mRNA expression” value [2] was “remained unaffected”. For the same substance, the “inhibition of forskolin-stimulated cAMP accumulation” value (PxsNPFR [3]; HEK293/PxsNPFR, 10 μM forskolin + 500 μM IBMX, 15 min, various peptide concentrations, result in words) was “an inhibitory effect was not observed” and the “G protein coupling of the peptide-PxsNPFR complex” value (PxsNPFR [3]; conclusion from cAMP and Ca2+ assays, words) was “regulates Gq protein-mediated signalling”.
